Measured values from PMC7377474, “Preclinical characterization of CPL302-253, a selective inhibitor of PI3Kδ, as the candidate for the inhalatory treatment and prevention of Asthma” (PLoS ONE, 2020).
pIC50: −log10 of the molar value. Where “and” joins values, the source holds several entries; their conditions need not be identical. Equal values may be shown once. Read-outs that look alike come from different tables or passages of the source.

Legend:
in vitro = assay type: cell-based; conditions: human
Description: (§1) The study was performed by Cyprotex according to service provider’s protocol. In brief NHBE cells were plated on 96-well plate. The cells were dosed with test compound at 0.0457, 0.137, 0.412, 1.24, 3.7, 11.1, 33.3, 100 μM and incubated for 48 h. The cells were loaded with dye or antibody relevant for each health marker and scanned using fluorescent cell imager. The following parameters were studied: cell count, nuclear size, DNA structure, mitochondrial mass, mitochondrial membrane potential, oxidative stress, glutathione content. The baseline for each parameter was determined based on vehicle control sample. The software calculates the percentage of cells that are low or high responders (depending on the biological significance of a particular readout). The vehicle control wells are then used to determine significance limits for wells that have a greater than expected fraction of low or high responders. The minimum effective concentration was determined from the lowest concentration whose mean value exceeds the significance level and provided either a clear dose-response relationship or at least two consecutive concentration points past the significance level.

[1] = test system: Normal Human Bronchial Epithelial (NHBE) cells; experiment: in vitro; assay type: cell-based; conditions: 48 h
Description: as §1

hERG = target: T1, hERG (Homo sapiens, UniProt Q12809); assay type: cell-based; conditions: 10 μM
T1 construct: purchased DiscoverX (Eurofins) SafetyScan44
Description: (§2) SafetyScan44 assay was performed by DiscoverX according to service provider’s protocol.

basophils = experiment: Basophils activation (Flow CAST Basophil Activation Test); assay type: cell-based, human; conditions: for pIC50: anti-FcεRI antibody; for IgE (basophil activation, Fig 4D): concentration 0 = 100
Description: The study was performed using Flow CAST Basophil Activation Test (Buhlmann) according to manufacturer’s protocol with modifications. In brief to U bottom 96-well plate 50 μl of stimulus solution (stimulating antibody specific for the high-affinity IgE receptor FcεRI) or assay bufferwas added. Subsequently to some wells, 50 μl of inhibitor at different concentrations in assay buffer was added. In the next step 50 μl of EDTA collected fresh human blood was added to each well followed by 50 μl of staining reagent (diluted 2:3 in assay buffer). The cells were incubated for 25 min at 37°Cin humidified incubator in the presence of 5% CO2. After incubation cells were centrifuged and erythrocytes were lysed with pre-warmed (18–28°C) Lysing Reagent. After centrifugation cells were suspended in Wash Buffer and analysed by FACSCalibur. Data were analysed using CellQuestPro and FlowJo software.

CCKAR = target: T2, CCKAR (Homo sapiens, UniProt P32238); experiment: SafetyScan44; assay type: cell-based; conditions: 10 μM
T2 construct: purchased DiscoverX (Eurofins) SafetyScan44
Description: as §2

ADRB2 = target: T3, ADRB2 (Homo sapiens, UniProt P07550); experiment: SafetyScan44; assay type: cell-based; conditions: 10 μM
T3 construct: purchased DiscoverX (Eurofins) SafetyScan44
Description: as §2

GR = target: T4, GR (Homo sapiens, UniProt P04150); experiment: SafetyScan44; assay type: cell-based; conditions: 10 μM
T4 construct: purchased DiscoverX (Eurofins) SafetyScan44
Description: as §2

PDE3A = target: T5, PDE3A (Homo sapiens, UniProt Q14432); experiment: SafetyScan44; assay type: cell-based; conditions: 10 μM; Inhibitor mode
T5 construct: purchased DiscoverX (Eurofins) SafetyScan44
Description: as §2

EDNRA = target: T6, EDNRA (Homo sapiens, UniProt P25101); experiment: SafetyScan44; assay type: cell-based; conditions: 10 μM
T6 construct: purchased DiscoverX (Eurofins) SafetyScan44
Description: as §2

HRH1 = target: T7, HRH1 (Homo sapiens, UniProt P35367); experiment: SafetyScan44; assay type: cell-based; conditions: 10 μM
T7 construct: purchased DiscoverX (Eurofins) SafetyScan44
Description: as §2

[2] = test system: CD19 B cells and PBMC stimulated with αIgM and TCR ligands; experiment: BioMAP profiling, BT system; assay type: cell-based, human
Description: BioMap Profiling study was performed by DiscovereX according to service provider’s protocol. In brief cultures or co-cultures of human primary cells were treated with sets of stimulators specific for cell subsets. […] The expression of biomarkers specific for each system was measured by ELISA and other techniques. The results are shown as log-transformed ratio of the biomarker readouts for the drug-treated sample to vehicle controls. The grey area parallel to the x-axis indicates the 95% significance region calculated based on historical vehicle controls. […]

neutrophils = experiment: Neutrophils IL-8 production; assay type: cell-based, human; conditions: 6 h, 1 μM
Description: Neutrophils were isolated using EasySep Direct Human Neutrophil Isolation Kit (StemCell Technologies) from fresh whole blood of healthy donors by magnetic bead isolation according to manufacturer’s protocol. The cells were cultured in AIM V medium (Gibco). After 30 min pre-treatment with CPL302-253 (1 μM) neutrophils were stimulated with Cigarette Smoke Extract (CSE) (Murty Laboratories) at 100 μg/ml or LPS from E. coli O55:B5 (Sigma-Aldrich) at 1 μg/ml. After 6 h of incubation the culture supernatants were collected and IL-8 production was measured using IL-8 Human Uncoated ELISA Kit (Invitrogen) according to manufacturer’s protocol

T2 sequence (P32238 whole entry): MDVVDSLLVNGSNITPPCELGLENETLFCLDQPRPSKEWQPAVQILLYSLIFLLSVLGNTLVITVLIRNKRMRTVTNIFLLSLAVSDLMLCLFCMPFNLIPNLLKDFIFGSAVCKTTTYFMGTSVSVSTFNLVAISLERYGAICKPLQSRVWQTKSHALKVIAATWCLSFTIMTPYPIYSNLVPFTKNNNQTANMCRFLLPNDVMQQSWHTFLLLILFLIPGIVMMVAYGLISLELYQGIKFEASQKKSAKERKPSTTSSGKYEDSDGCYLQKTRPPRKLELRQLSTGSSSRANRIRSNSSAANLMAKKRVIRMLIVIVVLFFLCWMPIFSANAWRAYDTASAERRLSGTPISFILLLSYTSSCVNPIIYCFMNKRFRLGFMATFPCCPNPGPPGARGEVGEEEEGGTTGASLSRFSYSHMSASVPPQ
T6 sequence (P25101 21-427): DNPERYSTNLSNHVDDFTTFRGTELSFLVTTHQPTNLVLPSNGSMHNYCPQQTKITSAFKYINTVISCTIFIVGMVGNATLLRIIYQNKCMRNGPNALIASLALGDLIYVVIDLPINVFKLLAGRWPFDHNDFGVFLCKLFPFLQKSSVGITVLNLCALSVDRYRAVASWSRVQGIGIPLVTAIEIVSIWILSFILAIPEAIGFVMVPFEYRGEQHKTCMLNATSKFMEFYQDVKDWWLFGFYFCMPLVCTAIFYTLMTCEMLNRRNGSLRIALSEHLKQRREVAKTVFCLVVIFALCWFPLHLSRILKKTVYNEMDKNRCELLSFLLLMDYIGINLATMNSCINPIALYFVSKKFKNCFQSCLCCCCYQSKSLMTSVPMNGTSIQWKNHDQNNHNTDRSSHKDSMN
T4 sequence (P04150 whole entry): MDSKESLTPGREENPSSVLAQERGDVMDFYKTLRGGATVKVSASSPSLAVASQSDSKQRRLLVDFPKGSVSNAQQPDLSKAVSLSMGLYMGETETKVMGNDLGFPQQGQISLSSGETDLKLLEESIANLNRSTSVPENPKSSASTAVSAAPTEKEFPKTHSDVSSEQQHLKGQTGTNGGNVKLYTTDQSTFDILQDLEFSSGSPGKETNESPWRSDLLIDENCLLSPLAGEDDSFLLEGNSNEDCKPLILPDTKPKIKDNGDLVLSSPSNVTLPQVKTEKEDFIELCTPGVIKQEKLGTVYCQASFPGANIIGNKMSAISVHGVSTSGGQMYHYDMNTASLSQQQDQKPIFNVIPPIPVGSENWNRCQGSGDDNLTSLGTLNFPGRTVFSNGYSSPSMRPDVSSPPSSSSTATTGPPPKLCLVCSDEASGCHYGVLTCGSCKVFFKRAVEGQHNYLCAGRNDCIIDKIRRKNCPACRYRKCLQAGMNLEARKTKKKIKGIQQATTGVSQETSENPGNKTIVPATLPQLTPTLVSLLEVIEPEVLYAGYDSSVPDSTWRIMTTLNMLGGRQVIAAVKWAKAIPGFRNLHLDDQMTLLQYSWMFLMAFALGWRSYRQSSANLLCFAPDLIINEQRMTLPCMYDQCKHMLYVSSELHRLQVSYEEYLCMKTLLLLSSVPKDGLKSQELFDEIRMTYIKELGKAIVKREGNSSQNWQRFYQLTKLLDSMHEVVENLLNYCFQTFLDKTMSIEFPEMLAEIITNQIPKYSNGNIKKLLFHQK
T7 sequence (P35367 whole entry): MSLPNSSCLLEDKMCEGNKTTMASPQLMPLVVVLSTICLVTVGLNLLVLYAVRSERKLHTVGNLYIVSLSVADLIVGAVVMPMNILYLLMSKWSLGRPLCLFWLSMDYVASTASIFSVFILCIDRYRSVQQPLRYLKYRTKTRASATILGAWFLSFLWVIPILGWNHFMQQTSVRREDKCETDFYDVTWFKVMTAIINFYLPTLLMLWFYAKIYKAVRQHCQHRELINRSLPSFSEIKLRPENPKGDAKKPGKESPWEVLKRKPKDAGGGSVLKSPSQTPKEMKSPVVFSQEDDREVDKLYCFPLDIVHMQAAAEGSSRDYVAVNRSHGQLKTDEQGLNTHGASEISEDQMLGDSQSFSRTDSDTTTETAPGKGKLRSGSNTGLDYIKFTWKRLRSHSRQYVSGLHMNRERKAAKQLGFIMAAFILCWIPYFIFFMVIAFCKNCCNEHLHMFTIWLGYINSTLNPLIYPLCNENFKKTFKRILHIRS
T3 sequence (P07550 whole entry): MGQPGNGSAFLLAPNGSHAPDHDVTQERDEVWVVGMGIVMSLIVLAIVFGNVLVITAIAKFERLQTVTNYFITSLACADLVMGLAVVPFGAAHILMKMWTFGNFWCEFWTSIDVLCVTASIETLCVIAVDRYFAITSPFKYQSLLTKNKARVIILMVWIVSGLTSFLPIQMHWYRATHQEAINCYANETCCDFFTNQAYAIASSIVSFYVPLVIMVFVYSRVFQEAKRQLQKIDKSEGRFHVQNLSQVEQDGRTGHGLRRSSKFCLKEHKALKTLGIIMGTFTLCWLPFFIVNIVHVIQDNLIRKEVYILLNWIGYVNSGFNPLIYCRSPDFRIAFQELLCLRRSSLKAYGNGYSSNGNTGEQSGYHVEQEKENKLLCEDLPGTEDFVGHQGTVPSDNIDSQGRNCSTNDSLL
T5 sequence (Q14432 whole entry): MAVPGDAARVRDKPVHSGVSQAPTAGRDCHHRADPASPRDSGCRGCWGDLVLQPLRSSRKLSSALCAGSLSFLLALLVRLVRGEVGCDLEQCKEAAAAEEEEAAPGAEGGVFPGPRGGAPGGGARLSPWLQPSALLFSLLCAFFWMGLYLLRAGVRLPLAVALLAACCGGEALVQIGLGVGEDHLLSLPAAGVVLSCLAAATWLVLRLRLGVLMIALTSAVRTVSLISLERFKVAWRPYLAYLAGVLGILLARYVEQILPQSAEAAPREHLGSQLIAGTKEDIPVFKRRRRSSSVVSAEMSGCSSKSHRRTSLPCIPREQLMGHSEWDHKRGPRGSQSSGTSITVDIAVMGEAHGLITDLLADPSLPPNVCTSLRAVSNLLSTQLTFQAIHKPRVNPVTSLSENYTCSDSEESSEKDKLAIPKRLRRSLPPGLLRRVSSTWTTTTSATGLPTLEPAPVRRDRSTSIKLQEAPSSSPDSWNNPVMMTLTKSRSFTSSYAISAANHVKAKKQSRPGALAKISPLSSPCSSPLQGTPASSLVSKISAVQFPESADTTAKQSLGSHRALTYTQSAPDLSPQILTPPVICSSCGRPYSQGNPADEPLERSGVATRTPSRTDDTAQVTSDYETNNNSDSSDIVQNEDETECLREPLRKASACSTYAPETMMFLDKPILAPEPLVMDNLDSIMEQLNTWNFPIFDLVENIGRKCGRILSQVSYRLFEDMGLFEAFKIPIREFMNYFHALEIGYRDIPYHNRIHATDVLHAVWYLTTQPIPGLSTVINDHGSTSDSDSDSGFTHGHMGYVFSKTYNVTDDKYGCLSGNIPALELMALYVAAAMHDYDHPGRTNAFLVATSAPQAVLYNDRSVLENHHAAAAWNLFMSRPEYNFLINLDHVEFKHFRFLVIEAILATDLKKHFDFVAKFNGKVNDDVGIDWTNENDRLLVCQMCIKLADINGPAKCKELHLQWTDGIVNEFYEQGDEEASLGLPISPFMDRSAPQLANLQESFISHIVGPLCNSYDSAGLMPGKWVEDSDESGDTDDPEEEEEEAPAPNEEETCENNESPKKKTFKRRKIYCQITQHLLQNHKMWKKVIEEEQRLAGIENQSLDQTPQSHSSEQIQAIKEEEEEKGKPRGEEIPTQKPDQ
T1 sequence (Q12809 whole entry): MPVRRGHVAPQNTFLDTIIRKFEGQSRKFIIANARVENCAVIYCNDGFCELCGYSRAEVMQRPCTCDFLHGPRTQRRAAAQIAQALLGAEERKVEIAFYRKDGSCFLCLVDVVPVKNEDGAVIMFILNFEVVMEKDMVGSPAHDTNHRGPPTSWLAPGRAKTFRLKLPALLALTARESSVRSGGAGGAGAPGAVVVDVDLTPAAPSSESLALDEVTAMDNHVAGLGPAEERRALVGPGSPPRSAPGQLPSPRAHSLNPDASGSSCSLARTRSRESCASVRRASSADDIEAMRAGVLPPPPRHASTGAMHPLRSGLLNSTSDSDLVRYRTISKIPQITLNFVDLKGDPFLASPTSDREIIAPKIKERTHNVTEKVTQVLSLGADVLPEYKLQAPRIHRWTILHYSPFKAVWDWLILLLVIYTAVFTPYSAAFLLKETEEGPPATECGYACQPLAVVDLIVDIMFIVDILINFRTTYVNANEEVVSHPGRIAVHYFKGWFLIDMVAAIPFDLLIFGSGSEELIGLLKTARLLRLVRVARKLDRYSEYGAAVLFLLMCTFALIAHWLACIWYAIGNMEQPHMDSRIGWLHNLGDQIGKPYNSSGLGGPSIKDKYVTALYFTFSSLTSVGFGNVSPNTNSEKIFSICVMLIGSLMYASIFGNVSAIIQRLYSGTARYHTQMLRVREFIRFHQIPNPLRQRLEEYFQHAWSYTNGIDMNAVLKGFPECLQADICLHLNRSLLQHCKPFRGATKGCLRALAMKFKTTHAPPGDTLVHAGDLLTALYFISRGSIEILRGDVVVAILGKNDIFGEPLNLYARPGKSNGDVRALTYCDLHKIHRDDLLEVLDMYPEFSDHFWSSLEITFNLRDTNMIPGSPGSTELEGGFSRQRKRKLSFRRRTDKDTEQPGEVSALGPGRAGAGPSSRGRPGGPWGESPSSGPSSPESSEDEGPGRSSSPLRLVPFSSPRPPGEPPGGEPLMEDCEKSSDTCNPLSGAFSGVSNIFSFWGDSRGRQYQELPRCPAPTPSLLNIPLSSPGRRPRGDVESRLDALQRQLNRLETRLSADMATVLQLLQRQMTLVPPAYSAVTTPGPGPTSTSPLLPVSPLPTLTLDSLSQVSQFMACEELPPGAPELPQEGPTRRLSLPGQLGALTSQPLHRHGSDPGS

With `CC(C)(C)N1CCN(Cc2cc3nc(-c4cncc5[nH]ccc45)cc(N4CCOCC4)n3n2)CC1` [CPL302-253] the AC50 at 48 h (in vitro) was greater than 100 µM, the AC50 [1] was greater than 100 µM and the “MEC Cell count” value [1] was 50.6 µM. For the same compound, the “MEC DNA structure” value [1] was 24.4 µM, the “MEC Glutathione content” value [1] was 10.6 µM and the “MEC Mitochondrial mass” value [1] was 20.8 µM. The “MEC Mitochondrial membrane potential” value [1] was 22.8 µM, the “MEC Nuclear size” value [1] was 75.3 µM and the “MEC Oxidative stress” value [1] was 16.1 µM. The “lowest concentration influencing any cell health parameter” value [1] was no less than 10 µM, the “% Response hERG Blocker” value (hERG) was -2.7% and the pIC50 (basophils; 25 min, human whole blood, 25 min, read-out: IC50 CD63 expression after basophils activation) was 7.44. For the same compound, the “IgE (basophil activation, Fig 4D)” value (basophils; Concentration 1 (unit not given)) was 93.65, the “IgE (basophil activation, Fig 4D)” value (basophils; Concentration 3 (unit not given)) was 103.18 and the “IgE (basophil activation, Fig 4D)” value (basophils; Concentration 10 (unit not given)) was 85.97. The “IgE (basophil activation, Fig 4D)” value (basophils; Concentration 33 (unit not given)) was 51.03, the “IgE (basophil activation, Fig 4D)” value (basophils; Concentration 100 (unit not given)) was 22 and the “IgE (basophil activation, Fig 4D)” value (basophils; Concentration 333 (unit not given)) was 3.87. The “IgE (basophil activation, Fig 4D)” value (basophils; Concentration 1000 (unit not given)) was -1.11, the “IgE (basophil activation, Fig 4D)” value (basophils; Concentration 3333 (unit not given)) was 5.06 and the “IgE (basophil activation, Fig 4D)” value (basophils; Concentration 10000 (unit not given)) was -1.49. The pIC50 (basophils; Homo sapiens, basophil CD63 expression, read-out: IC50 (Fig 4D, printed in the picture)) was 7.44, the “% Response CCKAR Agonist” value (CCKAR; Agonist mode) was -2.8% and the “% Response CCKAR Antagonist” value (CCKAR; Antagonist mode) was -2.4%. For the same compound, the “% Response ADRB2 Agonist” value (ADRB2; Agonist mode) was 0.5%, the “% Response ADRB2 Antagonist” value (ADRB2; Antagonist mode) was 17.7% and the “% Response GR Agonist” value (GR; Agonist mode) was 0.0%. The “% Response GR Antagonist” value (GR; Antagonist mode) was -5.6%, the “% Response PDE3A Inhibitor” value (PDE3A) was -8.1% and the “% Response EDNRA Agonist” value (EDNRA; Agonist mode) was -3.3%. The “% Response EDNRA Antagonist” value (EDNRA; Antagonist mode) was -4.8%, the “% Response HRH1 Agonist” value (HRH1; Agonist mode) was -0.2% and the “% Response HRH1 Antagonist” value (HRH1; Antagonist mode) was 7.2%. For the same compound, the “expression of IL-2, IL-6, IL-17 and TNFα in BT system” value [2] was “inhibits the expression of all of listed markers in BT system”, the “proliferation of B cells” value [2] was “blocked proliferation of B cells” and the “IL-8 release (Fig 4B), single replicates” value (neutrophils; 1 μg/ml LPS) was 471 and 860 and 464. The “IL-8 release (Fig 4A), single replicates” value (neutrophils; 100 μg/ml CSE) was 378 and 136 and 362 and the “IL-8 production by neutrophils” value (neutrophils; after CSE or LPS stimulation) was “reduced IL-8 production”.
